Values joined by “and” are separate entries in the source; they are usually repeats but may differ in a detail not shown here. Identical values can stand only once. Inconclusive results and toxic doses are left out.
Test system: L1210 leukemia ip in BDF1 mice, survival T/C
Test: NCI In Vivo Anticancer Drug Screen. Data for tumor model L1210 Leukemia (intraperitoneal) in B6D2F1 (BDF1) mice
Conditions: endpoint: mean survival time, higher = longer survival
Procedure, shortened: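 Transplanted-tumor mice were given test agent; controls received vehicle only. Survival readings from the two groups were divided (treated over control).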

[1] = dose: 100.0 mg/kg/injection, schedule: Q01DX009 (ip), vehicle: Klucel (hydroxypropylcellulose) (HPC)
[2] = dose: 200.0 mg/kg/injection, schedule: Q01DX009 (ip), vehicle: Klucel (hydroxypropylcellulose) (HPC)
[3] = dose: 400.0 mg/kg/injection, schedule: Q01DX009 (ip), vehicle: Klucel (hydroxypropylcellulose) (HPC)

Cc1[nH]nc(-c2cccnc2)c1N=NN(C)C
T/C (dose: 75.0 mg/kg/injection, schedule: Q01DX001 (ip), vehicle: saline): 110 % of control
T/C (dose: 150.0 mg/kg/injection, schedule: Q01DX001 (ip), vehicle: saline): 106 % of control
T/C (dose: 300.0 mg/kg/injection, schedule: Q01DX001 (ip), vehicle: saline): 111 % of control

CC(=O)Nc1ccc(OCCOC(=O)Nc2ccccc2C(F)(F)F)cc1
T/C [1]: 91 % of control
T/C [2]: 105 % of control
T/C [3]: 93 % of control

CC1=CC(=O)C(Sc2ccc(C)cc2)=CC1=O
T/C (dose: 75.0 mg/kg/injection, schedule: Q01DX001 (ip), vehicle: other): 98 % of control
T/C (dose: 150.0 mg/kg/injection, schedule: Q01DX001 (ip), vehicle: other): 93 % of control

CN(Cc1cnc2nc(N)nc(N)c2n1)c1ccccc1
T/C (dose: 20.0 mg/kg/injection, schedule: Q01DX009 (ip), vehicle: saline with Tween-80): 97 % of control
T/C (dose: 40.0 mg/kg/injection, schedule: Q01DX009 (ip), vehicle: saline with Tween-80): 101 % of control
T/C (dose: 80.0 mg/kg/injection, schedule: Q01DX009 (ip), vehicle: saline with Tween-80): 98 % of control

c1ccc2c(c1)ccc1oc3ccccc3c12
T/C (dose: 100.0 mg/kg/injection, schedule: Q01DX001 (ip), vehicle: saline): 101 % of control
T/C (dose: 200.0 mg/kg/injection, schedule: Q01DX001 (ip), vehicle: saline): 95 % of control
T/C (dose: 400.0 mg/kg/injection, schedule: Q01DX001 (ip), vehicle: saline): 98 % of control

COC(CBr)OC
T/C (dose: 10.0 mg/kg/injection, schedule: Q01DX009 (ip), vehicle: saline): 95 % of control
T/C (dose: 10.0 mg/kg/injection, schedule: Q04DX003 (ip), vehicle: saline): 98 % of control
T/C (dose: 20.0 mg/kg/injection, schedule: Q01DX009 (ip), vehicle: saline): 95 % of control
T/C (dose: 20.0 mg/kg/injection, schedule: Q04DX003 (ip), vehicle: saline): 101 % of control
T/C (dose: 25.0 mg/kg/injection, schedule: Q04DX003 (ip), vehicle: saline with Tween-80): 98 % of control
T/C (dose: 40.0 mg/kg/injection, schedule: Q01DX009 (ip), vehicle: saline): 104 % of control
T/C (dose: 40.0 mg/kg/injection, schedule: Q04DX003 (ip), vehicle: saline): 108 % of control
T/C (dose: 50.0 mg/kg/injection, schedule: Q04DX003 (ip), vehicle: saline with Tween-80): 98 % of control

CCCCOP(=O)(OCCCC)N1CCCCC1
T/C (dose: 25.0 mg/kg/injection, schedule: Q04DX002 (ip), vehicle: saline with Tween-80): 94 % of control
T/C (dose: 50.0 mg/kg/injection, schedule: Q04DX002 (ip), vehicle: saline with Tween-80): 108 % of control
T/C (dose: 100.0 mg/kg/injection, schedule: Q04DX002 (ip), vehicle: saline with Tween-80): 91 % of control

O=NN(CCCl)C(=O)NC1c2cc(Cl)ccc2-c2c(Cl)cc(Cl)cc21 (stereo not drawn)
T/C (dose: 6.6 mg/kg/injection, schedule: Q04DX003 (ip), vehicle: Klucel (hydroxypropylcellulose) (HPC)): 103 % of control
T/C (dose: 9.9 mg/kg/injection, schedule: Q04DX003 (ip), vehicle: Klucel (hydroxypropylcellulose) (HPC)): 116 % of control
T/C (dose: 12.5 mg/kg/injection, schedule: Q01DX009 (ip), vehicle: Klucel (hydroxypropylcellulose) (HPC)): 115 % of control
T/C (dose: 20.0 mg/kg/injection, schedule: Q04DX003 (ip), vehicle: Klucel (hydroxypropylcellulose) (HPC)): 102 % of control
T/C (dose: 25.0 mg/kg/injection, schedule: Q01DX009 (ip), vehicle: Klucel (hydroxypropylcellulose) (HPC)): 124 % of control
T/C (dose: 40.0 mg/kg/injection, schedule: Q04DX003 (ip), vehicle: Klucel (hydroxypropylcellulose) (HPC)): 119 % of control
T/C (dose: 50.0 mg/kg/injection, schedule: Q01DX009 (ip), vehicle: Klucel (hydroxypropylcellulose) (HPC)): 232 % of control
T/C [1]: 252 % of control
T/C (dose: 115.0 mg/kg/injection, schedule: Q04DX003 (ip), vehicle: Klucel (hydroxypropylcellulose) (HPC)): 154 % of control
T/C (dose: 200.0 mg/kg/injection, schedule: Q01DX001 (ip), vehicle: Klucel (hydroxypropylcellulose) (HPC)): 153 % of control
T/C [2]: 267 % of control
T/C (dose: 200.0 mg/kg/injection, schedule: Q04DX003 (ip), vehicle: Klucel (hydroxypropylcellulose) (HPC)): 174 % of control
T/C (dose: 400.0 mg/kg/injection, schedule: Q01DX001 (ip), vehicle: Klucel (hydroxypropylcellulose) (HPC)): 170 % of control
T/C [3]: 273 % of control
T/C (dose: 400.0 mg/kg/injection, schedule: Q04DX003 (ip), vehicle: Klucel (hydroxypropylcellulose) (HPC)): 157 % of control and 261 % of control

CCOC(=O)C1=CC=CC1=O
T/C (dose: 100.0 mg/kg/injection, schedule: Q04DX003 (ip), vehicle: saline with Tween-80): 102 % of control
T/C (dose: 200.0 mg/kg/injection, schedule: Q04DX003 (ip), vehicle: saline with Tween-80): 95 % of control
T/C (dose: 400.0 mg/kg/injection, schedule: Q04DX003 (ip), vehicle: saline with Tween-80): 91 % of control

Source: PubChem BioAssay AID248 (DTP/NCI, 2004)
